“And” between values parts separate entries of the source, which are not always exact repeats. Identical values can stand only once. Some results are limits rather than exact numbers.

By IC50 is commonly meant the concentration that gives 50% inhibition.

The test system of one experiment is HTT mRNA. As to the kind of experiment: Splicing RT-qPCR gene panel, HTT canonical junction (CJ) mRNA. In kind it is cell-based, human. To be noted: Homo sapiens, Tables 4A/4B, read-out: HTT (IC50, decrease in CJ mRNA, gene panel). In a few lines:
(§1)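 A673 or K562 cells were treated 24 h at 37 °C with an 11-point 3-fold dilution series (top 10 uM, ≤0.25% DMSO). Canonical-junction mRNA was measured in lysates by one-step RT-qPCR, normalized to GAPDH, GUSB or PPIA and DMSO control (2^(−ΔΔCt)), expressed as percentage response.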

The subject of the next experiment is MYB. As to the kind of experiment: Protein abundance, HiBit-assay system (Promega), MYB. In kind it is cell-based. To be noted: Table 6; HiBiT-modified K562 cells, 24 hours. The source says:
In some embodiments, a compound of Formula (I) or (II) or a pharmaceutically acceptable salt thereof, e.g., as described herein, modulates the expression of a target protein (e.g., HTT or MYB) in a reference cell or sample. In an embodiment, a compound of Formula (I) or (II) or a pharmaceutically acceptable salt thereof, e.g., as described herein, increases the expression of a target protein (e.g., HTT or MYB) in a reference cell or sample. In an embodiment, a compound of Formula (I) or (II) or a pharmaceutically acceptable salt thereof, e.g., as described herein, decreases the expression of a target protein (e.g., HTT or MYB) in a reference cell or sample. The effect of an exemplary compound of Formula (I) or (II) on protein abundance may be measured using a standard assay for measuring protein abundance, such as the HiBit-assay system (Promega). In this assay, percent response for each respective cell line may be as calculated at each compound concentration as follows: % response=100*(S−PC)/(NC−PC). For the normalized response at each concentration, a four-parameter logistical regression may be fit to the data and the response may be interpolated at the 50% value to determine a concentration for protein abundance at 50% (IC50) an untreated control. In an embodiment, a compound of Formula (I) or (II) or a pharmaceutically acceptable salt thereof, e.g., as described herein, has a protein abundance response less than 100 nM. In an embodiment, a compound of Formula (I) or (II) or a pharmaceutically acceptable salt thereof, e.g., as described herein, has a protein abundance response between 100-1000 nM. In an embodiment, a compound of Formula (I) or (II) or a pharmaceutically acceptable salt thereof, e.g., as described herein, has a protein abundance response greater than 1000 nM. In an embodiment, a compound of Formula (I) or (II) or a pharmaceutically acceptable salt thereof, e.g., as described herein, has a protein abundance response greater than 10 uM. In an embodiment, a compound of Formula (I) or (II) or a pharmaceutically acceptable salt thereof, e.g., as described herein, modulates the protein abundance of a target protein by about 1%, 5%, 10%, 15%, 20%, 25%, 30%, 35%, 40%, 45%, 50%, 55%, 60%, 65%, 70%, 75%, 80%, 85%, 90%, 95%, 99% or more, e.g., compared with a reference compound.
For orientation: With HiBiT, luminescence reflects the tagged protein that the partner subunit can reach.

The subject of the next experiment is Target C mRNA. The experiment is described as follows: Splicing RT-qPCR gene panel, Target C canonical junction (CJ) mRNA. In kind it is cell-based, human. As to conditions: Homo sapiens, Tables 4A/4B, read-out: Target C (IC50, decrease in CJ mRNA, gene panel). Put shortly:
as §1
For orientation: In qPCR the cycle at which signal appears reflects the starting amount.

For the next experiment, the system named is SMN2 mRNA. The experiment is described as follows: Splicing RT-qPCR gene panel, SMN2 canonical junction (CJ) mRNA. To be noted: Homo sapiens, Tables 4A/4B, read-out: SMN2 (IC50, decrease in CJ mRNA, gene panel). The class given is cell-based, human. In a few lines:
as §1

Consider `Cc1cn2cc(NC(=O)c3ccc(N4CCN(C)C(C)C4)c4cc(C)oc34)cc(F)c2n1` (centres unmarked) [Compound 191], for which the half-inhibitory concentration (IC50) is 100 to 1000 nM in the experiment with HTT mRNA; < 100 nM and 100 to 1000 nM with MYB; 1 to 10 µM with Target C mRNA; under 100 nM in the experiment on SMN2 mRNA.
Take `CCC1CN(c2ccc(C(=O)Nc3cc(F)c4nc(C)cn4c3)c3oc(C)cc23)CCN1` (centres unmarked) [Compound 192]: the IC50 in the experiment on HTT mRNA was 1000 to 10000 nM; in the experiment with MYB, 100 to 1000 nM; with Target C mRNA it was 1 to 10 µM; in the experiment with SMN2 mRNA, under 100 nM.
For `Cc1cn2cc(NC(=O)c3ccc(N4CCNC(C)(C)C4)c4cc(C)oc34)cc(F)c2n1` [Compound 193], the IC50 with HTT mRNA is 1000 to 10000 nM; in the experiment on MYB it was 100 to 1000 nM; with Target C mRNA, over 10 µM; in the experiment on SMN2 mRNA, under 100 nM.
For `Cc1cn2cc(NC(=O)c3ccc(N4CCNC5(CC5)C4)c4cc(C)oc34)cc(F)c2n1` [Compound 194] the same measures were 1000 to 10000 nM, 100 to 1000 nM, over 10 µM and under 100 nM.
In the case of `Cc1cn2cc(NC(=O)c3ccc(N4CC(C)(C)NC(C)(C)C4)c4cc(C)oc34)cc(F)c2n1` [Compound 195], the half-inhibitory concentration (IC50) in the experiment with HTT mRNA was over 10000 nM; with MYB it was 1000 to 10000 nM; in the experiment on Target C mRNA, over 10 µM; in the experiment on SMN2 mRNA, under 100 nM.
With `CCNC1CCN(c2ccc(C(=O)Nc3cc(F)c4nc(C)cn4c3)c3oc(C)cc23)CC1` [Compound 196], the IC50 was 1000 to 10000 nM with HTT mRNA, under 100 nM in the experiment with MYB, 1 to 10 µM in the experiment on Target C mRNA and under 100 nM with SMN2 mRNA.
In the case of `Cc1cn2cc(NC(=O)c3ccc(N4CCC(NC(C)(C)C)CC4)c4cc(C)oc34)cc(F)c2n1` [Compound 197], the IC50 with HTT mRNA was over 10000 nM; in the experiment on MYB, 1000 to 10000 nM; with Target C mRNA it was over 10 µM; in the experiment with SMN2 mRNA it was 100 to 1000 nM.
As for `CC1=CC2C(N3CCC(N(C)C)CC3)=CC=C(C(=O)Nc3cc(F)c4nc(C)cn4c3)C2O1` (centres unmarked) [Compound 198], the IC50 in the experiment on HTT mRNA is 1000 to 10000 nM; in the experiment on MYB it was under 100 nM; in the experiment on Target C mRNA, 1 to 10 µM; with SMN2 mRNA it was under 100 nM.
On to `Cc1cn2cc(NC(=O)c3ccc(N4CCN5CCCC5C4)c4cc(C)oc34)cc(F)c2n1` (centres unmarked) [Compound 199], for which the IC50 was 100 to 1000 nM in the experiment with HTT mRNA, under 100 nM in the experiment with MYB, 1 to 10 µM with Target C mRNA and under 100 nM in the experiment with SMN2 mRNA.
Take `Cc1cn2cc(NC(=O)c3ccc(C4CCNCC4)c4cn(C)nc34)cc(F)c2n1` [Compound 208]: the IC50 in the experiment on HTT mRNA was 100 to 1000 nM; in the experiment with MYB, under 100 nM; in the experiment with Target C mRNA, 0.1 to 1 µM; in the experiment on SMN2 mRNA it was under 100 nM.
`Cc1cc2c(N3CCNCC3)ccc(C(=O)Nc3cc(F)c4cn(C)nc4c3)c2o1` [Compound 217]: the IC50 is over 10000 nM in the experiment with HTT mRNA, over 10000 nM with MYB, over 10 µM with Target C mRNA and 1000 to 10000 nM in the experiment on SMN2 mRNA.
